One block for each compound: values may come before it.
Legend:
CD1d tetramers = biological target: T1, CD1d tetramers (Mus musculus, UniProt P11609); test: CD1d tetramers loaded with peptide, detection of NKT cells among CD4+ spleen cells; format: binding; settings: CD4+ spleen cells of naïve mice; FIG. 1
T1 construct: purchased ProImmune
T1 sequence (P11609 22-305 limits assumed): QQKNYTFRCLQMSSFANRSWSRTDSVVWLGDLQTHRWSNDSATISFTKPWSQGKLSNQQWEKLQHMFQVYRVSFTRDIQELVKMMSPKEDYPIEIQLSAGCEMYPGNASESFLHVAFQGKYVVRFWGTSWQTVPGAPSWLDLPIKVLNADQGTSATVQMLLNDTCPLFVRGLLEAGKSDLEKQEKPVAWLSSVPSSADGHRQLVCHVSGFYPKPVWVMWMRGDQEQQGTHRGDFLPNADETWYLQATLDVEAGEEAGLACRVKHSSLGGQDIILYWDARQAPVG
T1 sequence (P01887 21-119 partner): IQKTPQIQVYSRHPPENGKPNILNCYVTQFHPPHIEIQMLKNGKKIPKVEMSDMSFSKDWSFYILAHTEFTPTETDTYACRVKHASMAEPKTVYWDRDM
Experimental: A peptide encompassing SEQ ID NO: 1 was obtained by chemical synthesis. This peptide was used to load CD1d tetramers (ProImmune) by overnight incubation.
NKT cells were prepared from the spleen of naïve mice by depletion of all CD4(−) cells using magnetic beads.
CD4+ cells were then incubated with CD1d tetramers loaded by peptide of SEQ ID NO: 1 (P28 WT in FIG. 1), which corresponds to aminoacid sequence 190 to 209.

U937 cells = test: CD1d surface expression on U937 cells incubated with peptide (FACS); format: cell-based, human; settings: as example 4; FIG. 6
Experimental: To determine whether human antigen-presenting cells had the capacity to process and present a peptide epitope in the context of the CD1d molecule, the human macrophage cell line U937 was used.
The percentage of resting U937 cells expressing CD1d is low as detected with a specific anti-CD1d antibody. It was reasoned that, if U937 cells were incubated with a peptide having the sequence motif enabling it to bind to CD1d, then this should be detectable by increased expression of CD1d at cell surface. As observed for peptides encompassing MHC class II epitopes, the binding of a peptide stabilizes the conformation of the molecule (class II, or CD1d in the present case), allowing the complex to be anchored at cell surface and reducing its intracellular recycling.
U937 cells (7×10^5 cells) were incubated for 24h at 37° C. with 5 μg of peptide encompassing CD1d binding motifs or controls. The cells were then washed and incubated with fluorescence-labeled antibodies specific to CD1d and the number of positive cells evaluated using a FACS system.
Controls include (from left to right) unloaded U937, cells incubated with alpha-gal-ceramide and a conventional class II-restricted epitope (MHCII-MOG). The experiment includes sequences of factor VIII of either human (SEQ ID NO: 5) or mouse (SEQ ID NO: 6) origin corresponding to aminoacids 188-204 of the factor VIII sequence. […]

NKT cells [1] = test: Immunization with loaded JAWS2 cells, CD4+/CD8+ lineage of DX5/CD160 cells binding CD1d tetramers; format: in vivo, factor VIII KO mice
Experimental: To determine the cell lineage to which NKT cells belonged, an experiment was performed as described in Example 2. Thus, JAWS2 cells were loaded with either peptide of SEQ ID NO: 3, B-domain-deleted factor VIII, alpha-gal-ceramide or kept unloaded before intraperitoneal (IP) injection in factor VIII KO mice (2×10^6 cells per mouse). Five days after intraperitoneal injections, the mice were sacrificed and the splenocytes prepared. Cell suspensions were then reacted with CD1d tetramers unloaded or loaded with peptide of SEQ ID NO: 3 or with alpha-gal-ceramide.
For faccs analysis, cells binding CD1d tetramers were labeled with DX5- and CD160-specific antibodies and either anti-CD4 or anti-CD8 antibodies. The table summarizes the results.

NKT cells [2] = test: Immunization with JAWS2 cells loaded with peptide, tetramer detection of NKT cells in spleen; format: in vivo, factor VIII KO mice; settings: tetramers loaded with peptide, FIG. 2
Experimental: JAWS2 cells express CD1d but not MHC class II determinants.
JAWS2 cells were incubated 2 h at 37° C. with peptide of SEQ ID NO: 1 (10 μg/ml) and thoroughly washed twice. Cells were then treated with mitomycin to block cell division and washed 4 times to eliminate mitomycin. A cell suspension containing 2×10^6 cells in physiological serum was injected by the intraperitoneal route in each of a series of 3 naïve factor VIII KO mice. As a control, 3 naïve factor VIII KO mice received the same number of JAWS2 cells which had not been incubated with peptide of SEQ ID NO: 1.
Five days after IP injection, the mice were sacrificed and their spleen prepared as above using magnetic beads to eliminate all CD4(−) cells.
CD4+ cells were then incubated with tetramers loaded with peptide of SEQ ID NO: 1.

human iNKT cells = test: Cell cluster formation of human iNKT cells with peptide-loaded U937 cells; format: cell-based; settings: iNKT cells with loaded U937 cells 1:1, 2 weeks, IL-2; FIG. 5
Experimental: In order to establish whether human PBMC contained cells reacting with a CD1d-binding peptide epitope, invariant NKT (iNKT) cells were prepared from a buffy coat using magnetic beads coated with an antibody specific to the Valpha24-Jalpha18 chain of the T cell receptor (so-called invariant chain).
Said human iNKT cells (10^5/condition) were then incubated with mitomycine-C treated U937 cells (Ratio 1:1) loaded with 5 μg of either peptide encompassing aminoacid residues 188-204 of human factor VIII (SEQ ID NO: 5) or with control peptide (MHCII-MOG). Incubation was carried out for 2 weeks at 37° C. in RPMI containing 10% of fetal calf serum and 50 U/ml of human recombinant IL-2.
Culture plates were examined by eye for the presence of cell clusters. […] FIG. 5 illustrates the average of three microscopic field count of this observation (minimum 10 cells/cluster).

[3] = mice given JAWS2 loaded with the labelled substance, tetramers loaded with Alpha-gal-cer
[4] = mice given JAWS2 loaded with the labelled substance, tetramers loaded with Peptide SEQ ID NO: 3
[5] = mice given JAWS2 loaded with the labelled substance, unloaded tetramers
[6] = mice given unloaded JAWS2 (natural repertoire), tetramers loaded with the labelled substance

- CD1d binding motif / NKT cells detected by peptide-loaded tetramers (in words) (CD1d tetramers): major CD1d binding motif
Compound: QTLHKFILLFA (homo sapiens) [SEQ ID NO: 3, human factor VIII 190-200]
- expression of CD1d at the surface of U937 cells (in words) (U937 cells): did not increase
- Number of DX5/CD160 cells, CD4+ (NKT cells [1]; [3]): 2.2 ×10^3
- Number of DX5/CD160 cells, CD8+ (NKT cells [1]; [3]): 0.8 ×10^3
- Number of DX5/CD160 cells, CD4+ (NKT cells [1]; [4]): 47 ×10^3
- Number of DX5/CD160 cells, CD8+ (NKT cells [1]; [4]): 4.1 ×10^3
- Number of DX5/CD160 cells, CD4+ (NKT cells [1]; [5]): 0.2 ×10^3
- Number of DX5/CD160 cells, CD8+ (NKT cells [1]; [5]): 0.1 ×10^3
- Number of DX5/CD160 cells, CD4+ (NKT cells [1]; [6]): 39 ×10^3
- Number of DX5/CD160 cells, CD8+ (NKT cells [1]; [6]): 3.5 ×10^3

- % of CD4+ T cells detected by CD1d tetramers loaded with peptide (CD1d tetramers): ~1%
Compound: QTLHKFILLFAVFDEGKSWH (listed as Homo sapiens) [SEQ ID NO: 1, human factor VIII 190-209]
- proportion of NKT cells specific for peptide when peptide is presented by JAWS2 cells (NKT cells [2]; 5 days after IP injection of 2×10^6 peptide-loaded JAWS2 cells): 16%
- proportion of NKT cells specific for peptide, natural repertoire (NKT cells [2]; control mice given JAWS2 cells not incubated with peptide): 8%

Compound: KTQTLHKFILLFAVFDE (listed as Homo sapiens) [SEQ ID NO: 5, human factor VIII 188-204]
- presence of cell clusters (clumps of cells) (human iNKT cells): clumps of cells form

- CD1d binding motif / NKT cells detected by peptide-loaded tetramers (in words) (CD1d tetramers): limited though significant
Compound: AVFDEGKSWHS (homo sapiens) [SEQ ID NO: 4, human factor VIII 200-210]

Compound: CCCCCCCCCCCCCCCCCCCCCCCCCC(=O)N[C@@H](CO[C@H]1O[C@H](CO)[C@H](O)[C@H](O)[C@H]1O)[C@H](O)[C@H](O)CCCCCCCCCCCCCC [Alpha-gal-cer, alpha-gal-ceramide, reference compound]
- presence of cell clusters (clumps of cells) (human iNKT cells): to the same extent
- Number of DX5/CD160 cells, CD4+ (NKT cells [1]; [3]): 2.3 ×10^3
- Number of DX5/CD160 cells, CD8+ (NKT cells [1]; [3]): 1.8 ×10^3
- Number of DX5/CD160 cells, CD4+ (NKT cells [1]; [4]): 46 ×10^3
- Number of DX5/CD160 cells, CD8+ (NKT cells [1]; [4]): 1.9 ×10^3
- Number of DX5/CD160 cells, CD4+ (NKT cells [1]; [5]): 0.1 ×10^3
- Number of DX5/CD160 cells, CD8+ (NKT cells [1]; [5]): 0 ×10^3
- Number of DX5/CD160 cells, CD4+ (NKT cells [1]; [6]): 1.2 ×10^3
- Number of DX5/CD160 cells, CD8+ (NKT cells [1]; [6]): 1.3 ×10^3

— patent US10087233B2, “Coagulation factor VIII with reduced immunogenicity” (IMNATE SARL, priority 2012, dated 2018)
